Assay results reported in US20140350029A1 (DAINIPPON SUMITOMO PHARMA CO., LTD., priority 2011, published 2014).

How the values were obtained:
[1] = Lurasidone monotherapy for bipolar I depression, 6-week study, safety and tolerability; type: in vivo, human
[2] = molecular target: T1, noradrenaline α2C receptor (Homo sapiens, UniProt P18825); conditions: background statement; cited from earlier work
T1 sequence (P18825 1-462): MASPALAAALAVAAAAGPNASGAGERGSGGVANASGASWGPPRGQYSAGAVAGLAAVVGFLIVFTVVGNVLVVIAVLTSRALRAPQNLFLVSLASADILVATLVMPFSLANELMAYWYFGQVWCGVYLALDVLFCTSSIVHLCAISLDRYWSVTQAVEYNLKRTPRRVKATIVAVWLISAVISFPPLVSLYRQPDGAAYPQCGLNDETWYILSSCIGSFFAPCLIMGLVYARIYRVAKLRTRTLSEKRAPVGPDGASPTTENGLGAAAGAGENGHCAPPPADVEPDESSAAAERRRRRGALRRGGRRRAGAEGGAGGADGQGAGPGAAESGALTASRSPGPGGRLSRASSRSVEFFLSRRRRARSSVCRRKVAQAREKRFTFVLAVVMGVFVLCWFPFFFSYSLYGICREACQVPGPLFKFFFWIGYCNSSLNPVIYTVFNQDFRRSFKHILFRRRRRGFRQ

[3] = molecular target: T2, Serotonin 5-HT2c receptor (Sus scrofa, UniProt K7GSR7); type: binding, porcine
T2 sequence (K7GSR7 1-457): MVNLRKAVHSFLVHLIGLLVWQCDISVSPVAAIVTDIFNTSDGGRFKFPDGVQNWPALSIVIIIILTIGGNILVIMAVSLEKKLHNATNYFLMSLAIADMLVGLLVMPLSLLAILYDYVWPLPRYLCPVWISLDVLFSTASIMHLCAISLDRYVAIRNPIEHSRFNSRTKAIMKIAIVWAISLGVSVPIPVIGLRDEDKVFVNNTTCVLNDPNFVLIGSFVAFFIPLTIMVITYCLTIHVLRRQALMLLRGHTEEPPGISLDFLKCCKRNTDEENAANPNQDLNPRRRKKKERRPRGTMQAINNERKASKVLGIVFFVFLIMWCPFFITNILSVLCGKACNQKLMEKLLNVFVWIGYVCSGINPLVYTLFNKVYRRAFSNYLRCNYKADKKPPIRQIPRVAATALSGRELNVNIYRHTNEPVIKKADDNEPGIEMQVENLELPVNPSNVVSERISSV
Protocol: In vitro binding studies were carried out according to the procedures well-established in the art. Membranes from male Wistar rat brain tissues or cells expressing cloned human receptors were prepared under assay conditions summarized in Ishibashi, T. et al. (Journal of Pharmacology and Experimental Therapeutics (2010)). Functional assays were carried out to analyze the binding affinity and effect on receptor function for dopamine D1-D4 receptor subtypes, serotonin 5-HT1A, 5-HT2A, 5-HT2C, 5-HT6, 5-HT7, norepinephrine α1, α2A, α2C, histamine H1 receptors, and muscarinic M1 receptors.

[4] = Lurasidone 20-60 mg, listed as LUR
[5] = Lurasidone 80-120 mg, listed as LUR

SMILES: O=C1[C@@H]2[C@H]3CC[C@H](C3)[C@@H]2C(=O)N1C[C@@H]1CCCC[C@H]1CN1CCN(c2nsc3ccccc23)CC1 [Lurasidone]
- Adverse Events: Akathisia, incidence ([1]; Lurasidone 20-60 mg): 13 (7.9%)
- Adverse Events: Dizziness, incidence ([1]; Lurasidone 20-60 mg): 4 (2.4%)
- Adverse Events: Headache, incidence ([1]; Lurasidone 20-60 mg): 23 (14.0%)
- Adverse Events: Insomnia, incidence ([1]; Lurasidone 20-60 mg): 8 (4.9%)
- Adverse Events: Nausea, incidence ([1]; Lurasidone 20-60 mg): 17 (10.4%)
- Adverse Events: Sedation, incidence ([1]; Lurasidone 20-60 mg): 5 (3.0%)
- Adverse Events: Somnolence, incidence ([1]; Lurasidone 20-60 mg): 7 (4.3%)
- Cholesterol (mg/dL) median change (at LOCF endpoint) ([1]; Lurasidone 20-60 mg): 0.0 mg/dL
- Glucose (mg/dL) median change (at LOCF endpoint) ([1]; Lurasidone 20-60 mg): -1.0 mg/dL
- Triglycerides (mg/dL) median change (at LOCF endpoint) ([1]; Lurasidone 20-60 mg): +3.0 mg/dL
- Weight (kg) mean change (at LOCF endpoint) ([1]; Lurasidone 20-60 mg): +0.56 kg
- Adverse Events: Akathisia, incidence [1, 4]: 7.9%
- Adverse Events: Headache, incidence [1, 4]: 14.0%
- Adverse Events: Nausea, incidence [1, 4]: 10.4%
- Adverse Events: Akathisia, incidence ([1]; Lurasidone 80-120 mg): 18 (10.8%)
- Adverse Events: Dizziness, incidence ([1]; Lurasidone 80-120 mg): 10 (6.0%)
- Adverse Events: Headache, incidence ([1]; Lurasidone 80-120 mg): 15 (9.0%)
- Adverse Events: Insomnia, incidence ([1]; Lurasidone 80-120 mg): 11 (6.6%)
- Adverse Events: Nausea, incidence ([1]; Lurasidone 80-120 mg): 17.4%
- Adverse Events: Sedation, incidence ([1]; Lurasidone 80-120 mg): 12 (7.2%)
- Adverse Events: Somnolence, incidence ([1]; Lurasidone 80-120 mg): 11 (6.6%)
- Cholesterol (mg/dL) median change (at LOCF endpoint) ([1]; Lurasidone 80-120 mg): -3.0 mg/dL
- Glucose (mg/dL) median change (at LOCF endpoint) ([1]; Lurasidone 80-120 mg): 0.0 mg/dL
- Triglycerides (mg/dL) median change (at LOCF endpoint) ([1]; Lurasidone 80-120 mg): -2.0 mg/dL
- Weight (kg) mean change (at LOCF endpoint) ([1]; Lurasidone 80-120 mg): +0.02 kg
- Adverse Events: Akathisia, incidence [1, 5]: 10.8%
- Adverse Events: Headache, incidence [1, 5]: 9.0%
- Adverse Events: Nausea, incidence [1, 5]: 17.4%
- discontinuation rates due to adverse events ([1]; lurasidone 20 to 60 mg/day): 7%
- discontinuation rates due to adverse events ([1]; lurasidone 80 to 120 mg/day): 6%
- changes in weight, lipids and measures of glycemic control ([1]; monotherapy, 20-60 and 80-120 mg/day, 6 weeks): Minimal changes
- reported affinity for noradrenaline α2C receptor [2]: high affinity
- Ki ([3]; porcine, read-out: Binding Affinities (Ki; nM) Serotonin 5-HT2c): 415 nM
- binding affinity for serotonin 5-HT2C receptor (in words) ([3]; summary of Table 2): low or negligible binding affinity
